Test results: patent US11828759B2, “Method of diagnosis” (Peter MacCallum Cancer Institute, priority 2016, dated 2023)
“Also recorded” adds a separate entry of the source.

Key:
MDA-MB-231 cells = assay: 3D culture / co-culture invasion model on reconstituted basement membrane; type: cell-based, human; settings: for invasive protrusions / invasive outgrowths of co-cultures: MDA-MB-231 co-cultured 1:1 with N1ME stefin A low myoepithelial cells, 50 μM inhibitor in media, refreshed every 48 hours, vs DMSO control, n=3
Method: All 3D cultures were performed using CULTREX® (Trevigen, Gaithersburg, MD, 3433-005-01) similar to previously described (Mullins et al.). Briefly, 8 well chambers (THERMOFISHER, NUN155409) were coated with 100% CULTREX and allowed to solidify at 37° C. Cells (pre-mixed at 1:1 ratio) were seeded on top of the solidified CULTREX and allowed to adhere for 60-90 minutes before 2% CULTREX in MEGM media (LONZA) was overlaid. Media was changed every 4 days unless otherwise stated. On day 7, Z-stacks were captured on a ZEISS LSM 780 inverted confocal microscope, and 3D-reconstructions were created using IMARIS.
Bright-field images at 40× magnification were taken on the Olympus BX41 using a DP25 camera and DP2-BSW software (Olympus, TYO, Japan) to observe overall multicellular morphology. Nuclei were labelled with cell permeable Hoechst (Thermo Scientific, MA, USA, 33342) and rinsed with PBS. Confocal microscopy was performed on a Zeiss LSM 780 inverted confocal microscope (Zeiss, Thornwood, NY, USA) with a 10×/0.45 air-objective, with 37° C., 5% CO2 incubation. Z-stacks were captured using ZEN software (Zeiss) and 3D-reconstructions were created using IMARIS (Bitplane, Switzerland) including volume rendering.
Images of 3D cultures were processed and analyzed using the Fiji distribution of IMAGEJ (Schindelin et al. 2012) as follows. Extraction and mask generation of the individual cultures was carried out by applying an edge filter followed by an unsharp mask (radius=6, mask=0.8). The resulting image was blurred using a Gaussian filter (sigma=4) to make subsequent thresholding more accurate. A threshold was applied, manually adjusted if required and used to create a binary mask. The resulting mask was filtered by size to remove small, erroneous, debris. Each individual 3D cultures mask was then measured for its perimeter and convex hull lengths. […]
All statistics were calculated and graphed using PRISM version 7. […] Variation in mean convex hull to perimeter ratio was determined using one-way ANOVA followed by Tukey's post hoc analysis.

DSG3 = assay: Western blot of DSG3 in N1ME cells and conditioned media after CA-074 treatment; type: cell-based, human; settings: CA-074 for 72 hours vs DMSO
Method: (§1) Cells were lysed by freezing in citrate buffer (50 mM citrate, pH 5.5, 0.5% CHAPS, 0.1% TRITON™ X-100, 4 mM DTT). For cathepsin B activity gels, activity-based probes [GB123 (1 μM) (29) or BMV109 (0.1 μM) (Verdoes et al. 2013)] were added to lysates from a 100×stock, and proteins were incubated for 30 minutes at 37° C. The addition of 4×sample buffer (40% glycerol, 200 mM Tris-HCl pH 6.8, 0.04% bromophenol blue, 5% beta-mercaptoethanol) stopped the reaction with boiling for 10 minutes. Proteins (30-50 μg) were separated by SDS-PAGE (on either 15% acrylamide or gradient 4-20% gels, precast from BIO-RAD, CA, USA) and visualized using a TYPHOON flatbed laser scanner (GE Healthcare, UK) for Cy5 fluorescence. For immunoblotting, proteins were transferred to nitrocellulose membranes and subjected to standard Western blotting protocols. Membranes were incubated with 1 μg/ml primary antibodies against stefin A, cathepsin B (R&D Systems, Minneapolis, USA, AF965), DSG3 (Life Technologies, 326300), E-cadherin (Novus, NB-110-56937), or 1:10,000 dilutions of β-actin (Sigma-Aldrich, MO, USA, A22280) or GAPDH (Cell Signaling Technology, MA, USA, 8884). Signal was detected using ECL (GE Healthcare), G:Box GelDoc (Syngene, CBG, UK) and GeneSys (Syngene) software with automatic exposure.
(§2) To collect secreted proteins, cells were incubated in serum free media for 24 hours. […]

E-cadherin = assay: Western blot of E-cadherin in N1ME cells and supernatant after CA-074 treatment; type: cell-based, human; settings: N1ME stefin A wild type or stefin A low cells; CA-074 for 72 hours
Method: as §1, §2

[1] = test system: MMTV-PyMT mice (spontaneous mammary gland tumors); assay: MMTV-PyMT mouse model of DCIS-to-invasive transition; type: in vivo; settings: 50 mg/kg intraperitoneal daily, day 30-49
Method: Mouse investigations were performed after approval by the La Trobe University Animal Ethics Committee. Bl/6 MMTV-PyMT positive female mice were injected (intraperitoneal, 200 μl/20 g mouse) daily with 50 mg/kg CA-074 or vehicle (5% DMSO/saline) from day 30-49. On day 50, mice were culled and second, third and fourth mammary glands were resected and sent for histology. Mouse tissues were fixed in 10% buffered formalin for 6 hours and paraffin-embedded. Sections at three different depths throughout the mammary gland were taken and were stained with hematoxylin and eosin according to standard protocols. Alternatively, sections were stained with 1 μg/ml anti-α-smooth muscle actin (ABCAM, ab66133) or with isotype control antibodies, as above. Sections were scored by a pathologist blinded to treatment groups (Sandra O'Toole) for the presence of invasive regions of cancer growth within the mammary gland. Experiment included 8 mice per group.

cathepsin B = molecular target: T1, cathepsin B (Homo sapiens, UniProt P07858); assay: Stefin A in vitro inhibition of cathepsin B in N1ME cell lysate (BMV109 activity based probe); type: biochemical; settings: increasing concentrations of recombinant stefin A, 15 min at 37 C
T1 construct: SDS-PAGE gel electrophoresis of N1ME cell lysate incubated with increasing concentrations of recombinant stefin A; endogenous in cells; host or cells: N1ME (hTERT-immortalized human myoepithelial cells), lysed in citrate buffer pH 5.5
Method: as §1, with “exposure. […]” for “exposure.”

cathepsin L = molecular target: T2, cathepsin L (Homo sapiens, UniProt P07711); assay: Stefin A in vitro inhibition of cathepsin L in N1ME cell lysate (BMV109 activity based probe); type: biochemical; settings: increasing concentrations of recombinant stefin A, 15 min at 37 C
T2 construct: SDS-PAGE gel electrophoresis of N1ME cell lysate incubated with increasing concentrations of recombinant stefin A; endogenous in cells; host or cells: N1ME (hTERT-immortalized human myoepithelial cells), lysed in citrate buffer pH 5.5
T2 sequence (P07711 114-333): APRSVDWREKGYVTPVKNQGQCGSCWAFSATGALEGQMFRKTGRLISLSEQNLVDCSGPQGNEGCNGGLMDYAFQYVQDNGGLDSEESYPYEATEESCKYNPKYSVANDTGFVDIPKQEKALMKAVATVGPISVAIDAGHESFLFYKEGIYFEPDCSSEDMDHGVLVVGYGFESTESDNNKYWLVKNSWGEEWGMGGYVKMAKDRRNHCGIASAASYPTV

cathepsin B activity (cathepsin B) | cathepsin L activity (cathepsin L) | Molecule | invasive protrusions / invasive outgrowths of co-cultures (MDA-MB-231 cells) | DSG3 protein in whole cell lysates (DSG3; N1ME stefin A low cells) | cleaved extracellular domain of DSG3 (ecto-DSG3) in conditioned media (DSG3; N1ME wild type and stefin A low cells) | E-cadherin expression in whole cell lysates or ecto-protein (E-cadherin) | mice progressed to IDC at experimental endpoint ([1]; glands scored at day 50, 8 mice per group, control 6/8) | number of invasive regions throughout the mammary gland ([1]; vs DMSO control) | invasion of MDA-MB-231 cells cultured alone (MDA-MB-231 cells; MDA-MB-231 alone, without myoepithelial cells)
 |  | CCCNC(=O)[C@H]1O[C@@H]1C(=O)N[C@H](C(=O)N1CCC[C@H]1C(=O)O)[C@@H](C)CC [CA-074] | rescued the phenotype caused by stefin A loss | rescued in whole cell lysates; also recorded: an increase in protein was noted for DSG3 | decreased the cleaved extracellular domain of DSG3 | did not affect E-cadherin expression | 2/8 | decreased the number of invasive regions | 
 |  | JPM-OEt | reverted the invasive protrusions in the co-cultures, however not to the same extent as CA-074, and was not statistically significant |  |  |  |  |  | 
can be inhibited | can be inhibited | recombinant stefin A: recombinant stefin A (R&D Systems, 1407-PI-050), an 11 kDa cysteine protease inhibitor (protein, UniProt P01040 1-98, looked up) Cystatin-A: MIPGGLSEAKPATPEIQEIVDKVKPQLEEKTNETYGKLEAVQYKTQVVAGTNYYIKVRAGDNKYMHLKVFKSLPGQNEDLVLTGYQVDKNKDDELTGF |  |  |  |  |  |  | did not inhibit invasion
